These compounds were tested against Human immunodeficiency virus type 1 protease (Human immunodeficiency virus 1, UniProt Q72874) (assay: Compound was tested for the inhibition of HIV-1 protease by assaying the cleavage of a fluorescent peptide using HPLC).
`O=C1N(Cc2ccc3[nH]ncc3c2)[C@H](Cc2ccccc2)[C@H](O)[C@H](O)[C@]23CC[C@H]([C@H](OCc4ccccc4)C2)N13` gave a Ki of 9 nM. `O=C1N[C@H](Cc2ccccc2)[C@@H](O)[C@H](O)[C@]23CC[C@H](CC2)N13` showed a Ki of 21000 nM. `O=C1N(Cc2ccc3[nH]ncc3c2)[C@H](Cc2ccccc2)[C@H](O)[C@H](O)[C@]23CC[C@H](CC2)N13` was tested, and the Ki was 2300 nM. `O=C1N(Cc2ccccc2)[C@H](Cc2ccccc2)[C@H](O)[C@H](O)[C@]23CC[C@H](CC2)N13` showed a Ki of 2400 nM. With `O=C1N(Cc2ccccc2)[C@H](Cc2ccccc2)[C@@H](O)[C@H](O)[C@]23CC[C@H](CC2)N13` the Ki was 6300 nM. With `O=C1N(Cc2ccccc2)[C@H](Cc2ccccc2)[C@H](O)[C@H](O)[C@]23CC[C@H]([C@H](OCc4ccccc4)C2)N13` the Ki was 750 nM.

Source: ChEMBL document CHEMBL1130717, “Tricyclic ureas: a new class of HIV-1 protease inhibitors” (Bioorg Med Chem Lett, 1998)
